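96-well plates; 48 h exposure; 5 concentrations. Endpoints by linear interpolation between flanking doses. Not reached: highest tested concentration assigned. Here, GI50 denotes the concentration required for 50% inhibition of growth.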 The source made the active and inactive calls. Rule as the data show it: active = GI50 up to about 1.1 µM and inactive = higher.
What was measured:
Assay in all cases: NCI anticancer screen, dose series, 48 h
HOP-18 = test system: HOP-18
DMS-114 = test system: DMS-114
RXF 631 = test system: RXF 631
BT-549 = test system: BT-549
SNB-78 = test system: SNB-78
LXFL 529 = test system: LXFL 529
DMS-273 = test system: DMS-273
M19-MEL = test system: M19-MEL
XF498 = test system: XF498

Row | SMILES | GI50 (HOP-18) | GI50 (DMS-114) | GI50 (BT-549) | GI50 (SNB-78) | GI50 (DMS-273) | GI50 (M19-MEL) | further results
1 | O=C(Nc1cccs1)c1c(O)[nH]c(=S)[nH]c1=O | > 100 µM (inactive) | > 100 µM (inactive) |  |  |  |  | GI50 (RXF 631): > 100 µM (inactive)
2 | Oc1ccc2ccccc2c1/N=N/c1ccc(Cl)cc1 |  |  | > 100 µM (inactive) |  |  |  | 
3 | NN/C(=N\S(=O)(=O)c1cc2ccccc2o1)Nc1ccc(Cl)cc1 |  |  | 57.7 µM (inactive) |  |  |  | 
4 | CCCCOc1ccc(S(=O)(=O)/N=C(\NN)Nc2ccc(Cl)cc2)cc1 |  |  | > 100 µM (inactive) |  |  |  | 
5 | N#CC(=C1CCCCC1)c1nc2ccccc2o1 |  |  | 32.1 µM (inactive) |  |  |  | 
6 | COc1cc(/C=N/n2c(Cc3ccc(Cl)cc3)n[nH]c2=O)cc(OC)c1OC |  |  | > 100 µM (inactive) |  |  |  | 
7 | COc1cc(/C=C2/C[C@H]3[C@@H]4CC=C5C[C@@H](O)CC[C@]5(C)[C@H]4CC[C@]3(C)NC2=O)cc(OC)c1OC |  |  | 15.2 µM (inactive) |  |  |  | 
8 | C=CCOc1ccc(C(/N=N\c2ccc(Cl)cc2)=N/NC(=O)c2ccccc2)cc1OC |  |  | 20.4 µM (inactive) |  |  |  | 
9 | CC(=O)NNc1nc(C)c(C(=O)NNC(=O)C(=O)Nc2c(C)cccc2C(C)C)s1 |  | 86.7 µM (inactive) |  | 27.9 µM (inactive) | > 100 µM (inactive) | > 100 µM (inactive) | GI50 (LXFL 529): 46.1 µM (inactive); GI50 (XF498): > 100 µM (inactive)
10 | CCOC(=O)C1=C(OC(OCC)C(C)[Se]c2ccccc2)CCC1 (stereo unspecified) | 20.8 µM (inactive) |  |  | 97.1 µM (inactive) | 10.3 µM (inactive) | 15.8 µM (inactive) | GI50 (LXFL 529): 14.3 µM (inactive); GI50 (XF498): 16.1 µM (inactive)
11 | CC1(O)CC23CC(O)C4(O)C(CC(O)C4(C)C)C(C)(O)C2CCC1C3O (stereo unspecified) |  |  | > 100 µM (inactive) |  |  |  | 
12 | CC(=O)OC1COC(N2C(=O)/C(=N\NC(N)=S)c3cc(Br)ccc32)C(OC(C)=O)C1OC(C)=O (stereo unspecified) | > 100 µM (inactive) | 19.9 µM (inactive) |  | 53.5 µM (inactive) | 38.5 µM (inactive) | 53.5 µM (inactive) | GI50 (LXFL 529): 25.5 µM (inactive); GI50 (XF498): 37.1 µM (inactive)
13 | O=C(CCSC1=NCCCN1)c1ccc(F)cc1 |  |  | 18.2 µM (inactive) |  |  |  | 
14 | O=C1/C(=C/c2ccc3c(c2)CCC3)Cc2cc3c(cc21)CCC3 |  |  | > 100 µM (inactive) |  |  |  | 
15 | N#Cc1c(O)c(/N=N/c2ccc(Cl)cc2)c(=O)n2c1[nH]c1ccccc12 |  |  | 34.6 µM (inactive) |  |  |  | 
16 | CC(C)(C)OC(=O)C1/C(=C/CO)CN1C(=O)OC(C)(C)C (stereo unspecified) |  |  | > 100 µM (inactive) |  |  |  | 
17 | O=C1N(Cc2ccccc2)C2CSCC2N1Cc1ccccc1 (stereo unspecified) |  |  | 17.1 µM (inactive) |  |  |  | 
18 | COC(=O)C(=Cc1cc(OC)c(OC)c(OC)c1-c1cc2c(cc1C(C)=O)OCO2)C(=O)OC | 52.6 µM (inactive) | 37.5 µM (inactive) |  |  | 30.7 µM (inactive) | 34.6 µM (inactive) | GI50 (LXFL 529): 33.8 µM (inactive); GI50 (XF498): 27.4 µM (inactive)
19 | CCOC(=O)Oc1ccc2[nH]c3c(C)cc(N)c(C)c3c2c1 | > 100 µM (inactive) | 46.7 µM (inactive) |  | > 100 µM (inactive) | > 100 µM (inactive) | > 100 µM (inactive) | GI50 (XF498): > 100 µM (inactive)
20 | CC(=O)Oc1cc2c(cc1OC(C)=O)OCC(c1ccc(C)cc1)C2 (stereo unspecified) | 26.9 µM (inactive) | 4.94 µM (inactive) |  | 21.6 µM (inactive) | 19.4 µM (inactive) | 9.29 µM (inactive) | GI50 (XF498): 15.4 µM (inactive)
21 | COc1ccc(C2=Nc3cc(C)c(C)cc3NC(c3ccccc3)C2)cc1 (stereo unspecified) |  |  | > 100 µM (inactive) |  |  |  | 
22 | C[C@]12C=CC(=O)C=C1CC[C@@H]1[C@@H]2CC[C@@]2(C)[C@H]1CC[C@]2(O)C(N)=O |  |  | > 100 µM (inactive) |  |  |  | 
23 | Cn1c(NN)nc(-c2ccc([N+](=O)[O-])cc2)c(C#N)c1=O |  |  | 12.7 µM (inactive) |  |  |  | 
24 | CCOc1cc(NC(C)=O)ccc1C(=O)NN1C(=O)C(Cl)C1c1ccccc1 (stereo unspecified) |  |  | 11.4 µM (inactive) |  |  |  | 
25 | N=C(N)SCc1cccc([N+](=O)[O-])c1 | 26.9 µM (inactive) | 23.6 µM (inactive) |  | 35.6 µM (inactive) | 30.2 µM (inactive) | 35.3 µM (inactive) | GI50 (XF498): 25.1 µM (inactive)
26 | O=C(Nc1ccc(Cl)cc1)c1cc(S(=O)(=O)NC2=Nc3ccc(Cl)cc3C(c3ccccc3)N2)c(SSc2cc(Cl)c(C(=O)Nc3ccc(Cl)cc3)cc2S(=O)(=O)NC2=Nc3ccc(Cl)cc3C(c3ccccc3)N2)cc1Cl (stereo unspecified) |  |  | > 100 µM (inactive) |  |  |  | 
27 | CC1(c2ccc[n+](Cc3ccccc3)c2)OCCO1 | > 100 µM (inactive) |  |  | > 100 µM (inactive) | > 100 µM (inactive) | > 100 µM (inactive) | GI50 (LXFL 529): > 100 µM (inactive)
28 | CN1CCC23c4ccccc4NC1C21CCN(C)C3Nc2ccccc21 | 343 µM (inactive) | > 375 µM (inactive) |  | 151 µM (inactive) | > 375 µM (inactive) | > 375 µM (inactive) | 
29 | CC(=O)OC1CC2C(C)(C)C(=O)C=C[C@]2(C)C2CCC3(C)C(=CC(=O)C3c3ccoc3)[C@]12C (stereo partly specified) | 18.4 µM (inactive) | 10 µM (inactive) |  | 31.4 µM (inactive) |  | 16 µM (inactive) | GI50 (LXFL 529): 24 µM (inactive); GI50 (XF498): 25.8 µM (inactive)
30 | O=C(COc1cc(=O)oc2ccccc12)c1ccccc1 |  |  | 24.6 µM (inactive) |  |  |  | 

From ChEMBL document CHEMBL1201862, “PubChem BioAssay data set” (2004)
